Holding throughout (type): functional
One experiment deals with Staphylococcus aureus. As to the kind of experiment: Antibacterial activity against Staphylococcus aureus SG511 after 24 hrs by broth microdilution method. The following applies: SG511, 24 h. On the technique in general: In broth dilution the organism is exposed to a series of concentrations in liquid medium.
The test system of the next experiment is Vibrio ichthyoenteri. In words: Antibacterial activity against Vibrio ichthyoenteri after 24 hrs by broth microdilution method.
Another experiment relates to Streptococcus iniae. In words: Antibacterial activity against Streptococcus iniae after 24 hrs by broth microdilution method.

≈ marks a conversion by molar mass, not a printed value. Bounds are passed on as bounds.

In general, MIC refers to the least concentration at which growth counts as inhibited. A low value points to greater potency. Take `CCCCCCCCC(=O)c1cccc2c1C=C(CCCCCCC)[C@@]1(OCc3c(O)cccc31)O2`: the MIC against Staphylococcus aureus, in the experiment on Vibrio ichthyoenteri and against Streptococcus iniae was greater than 40 µg/mL each time.

Consider `CN(C)[C@@H]1C(O)=C(C(N)=O)C(=O)[C@@]2(O)C(=O)C3=C(O)c4c(O)cccc4[C@@](C)(O)[C@H]3[C@H](O)[C@@H]12`, for which the MIC came to 0.16 µg/mL (≈ 0.347 µM) in the experiment on Vibrio ichthyoenteri and 2.5 µg/mL (≈ 5.43 µM) against Streptococcus iniae.

With `CCCCCCCCC(=O)c1cccc2c1C=C(CCCCCCC)[C@]1(OCc3c(O)cccc31)O2`, the minimal inhibitory concentration (MIC) against Staphylococcus aureus, against Vibrio ichthyoenteri and in the experiment with Streptococcus iniae was greater than 40 µg/mL throughout.

Turning to `CN(C)[C@@H]1C(O)=C(C(N)=O)C(=O)[C@@]2(O)C(O)=C3C(=O)c4c(O)cccc4[C@@](C)(O)[C@H]3C[C@@H]12` [TETRACYCLINE], it took 0.16 µg/mL (≈ 0.36 µM) to inhibit growth in the experiment with Staphylococcus aureus (MIC).

For `CCCCCCCCC(=O)c1cccc2c1C=C(CCCCCCC)C1(OCc3c(O)cccc31)O2` (racemic), the MIC was greater than 40 µg/mL against Staphylococcus aureus, 40 µg/mL (≈ 81.5 µM) in the experiment on Vibrio ichthyoenteri and greater than 40 µg/mL against Streptococcus iniae.

Source of the values: ChEMBL document CHEMBL3739288, “Dimeric Octaketide Spiroketals from the Jellyfish-Derived Fungus Paecilomyces variotii J08NF-1” (2015).
